The values that follow come from paper PMC10499988 (Nature Communications, 2023).

The target in series [1] is T1, HSA (Homo sapiens, UniProt P02768). The following applies: 19F NMR competition.
Series [2] addresses T1, HSA. Set-up: purchased Sigma-Aldrich A4327-1G. The following applies: cited from earlier work.
The nature of series [3]: In vivo pharmacokinetic experiment, plasma LC-MS after tail vein injection. How it is done:
All the procedures and experiments involving animals were carried out using a protocol approved by the Health Sciences Laboratory Animal Services (HSLAS), University of Alberta. The protocol was approved as per the Canadian Council on Animal Care (CCAC) guidelines. Approved protocol # AUP00002467. All mice (Strain: C57BL/6J) were maintained in pathogen-free conditions at the University of Alberta breeding facility. Housed on ventilated caging (Tecniplast); Temperature: 21 +/− 2 degrees Celsius; Humidity: 30–70% rH; Light Cycle: 12 L:12D. […] Peptide mixtures of 100 µM were prepared in PBS. Mice were administered with 200 µL of the peptide mixture solution with tail veil injection. A series of 6 blood samples were collected at time points from 2 min up to 240 min (Fig. 6B: 2 min, 60 min; Fig. 6C–E: 2 min, 60 min, 180 min; Supplementary Fig. 32: 2 min, 5 min, 30 min, 60 min, 120 min, 240 min). Samples were collected in tubes that contained sodium citrate as an anticoagulant and then centrifuged at 5 min at 2000 × g to collect the blood plasma. 10 µL of plasma portion were transferred into a tube containing 40 µL of 8:2 acetonitrile/water to precipitate proteins. The samples were centrifuged at 17,000 × g for 10 min at 4 °C. Supernatants were then transferred to new tubes and subjected to analysis by LC-MS. […]
assays. The fluorescent-labeled peptides w ere dissolved to 10 m M in D M SO and diluted to 20 µM in DM SO for use. Each well contained 19 µL of HSA in PBSwith the range of final […]
1 µL of 20 µM of fluorescentlly labeled peptide was added to the wells to a final concentration of 1 µM . Each measuring point was made in duplicate. Before measuring, the plate was centrifuged 500×g for 5 min at RT, incubated for 10 m in, and shaken for 5 m in the dark. The m easurem ent w as perform ed in Cytation5 Cell Imaging Multi-Mode Reader from BioTek. The data were analyzed and processed in […]
26. […]
prepared with the identical buffer as the peptides to a final concentration of 40 µM . […] The data were evaluated using the MicroCalTM OriginTM Version 5.0. […]

Series [4] can be described thus: Reactivity of macrocycles with thiol nucleophiles. Format: physicochemical. The settings on record: several hours, basic pH. The source says:
6-10 Å and the PM F of the pocket 1 starts to deviate from the others, we performed hydrogen bond interaction searches with 3.5 Å cut off distance between a donor and an acceptor at intermediate regime from umbrella sampling simulations. These findings […]
of the peptide to the pocket 1 binding site of albumin. This was supported by the fact that […]
simulation time (Supplementary Fig. 27). O verall, these findings provide im portant insights into the m echanism of binding betw een the peptide and album in, w hich could inform the design of future albumin-binding peptides with improved affinity and specificity. The concurrence of the docking results and the experimental binding data provides strong evidence that our simulations accurately predicted the binding for 14c.
Supplementary Fig. 7. […] The OFS-SWCRC […]
peptide was added with one equivalent of GSH in 60% acetonitrile in 50 mM Tris-HCl at pH 8.5.
The reaction was monitored by LC–MS.
Supplementary Fig. 8. Stability of the PFS stapled peptides (A ) Results of the PFS-SW CRC mixed with 2-mercaptoethanol and analyzed by LC–MS after 1 hour and 3 weeks. The PFS-SW CRC macrocycle was combined with 1 equivalent of 2-mercaptoethanol in 60% acetonitrile and 50 mM Tris-HCl at pH 8.5. The mixture was monitored by LC–MS. […]
spectrum of 1 mg of PFS- […] mixed with 1 mg of HSA over 19 days in PBS. The mixture was monitored by 19F NMR in PBS, 10% D2O

Series [5] addresses Serum albumin (Homo sapiens) (UniProt P02768). The settings on record: cited from earlier work.
Where [6] appears, read: C57BL/6J, mouse, plasma, iv, 200 uL of 100 uM peptide mixture.

Like-named read-outs stand apart in the source and are kept apart here. Positions of bridges follow the written chain, without caps; N, C: chain ends. Residues, ends and D or L forms follow the SMILES beside them.

Consider `NC(=O)N1c2ccccc2C=Cc2ccccc21` [carbamazepine], for which the “influence on binding of 14c to HSA” value at HSA [1] is given as “none of these drugs influenced the binding of 14c”.
As to `CC[C@H](C)[C@H](NC(=O)[C@H](CC(C)C)NC(=O)[C@H](CCCNC(=N)N)NC(C)=O)C(=O)N[C@@H](CCC(=O)O)C(=O)N[C@@H](CC(=O)O)C(=O)N[C@H](C(=O)N[C@H]1CSSC[C@@H](C(=O)N[C@@H](CC(C)C)C(=O)N[C@@H](Cc2c[nH]c3ccccc23)C(=O)N[C@@H](CCC(=O)O)C(=O)N[C@@H](CC(=O)O)C(=O)N[C@@H](CC(=O)O)C(N)=O)NC(=O)CNC(=O)[C@H](Cc2c[nH]c3ccccc23)NC(=O)[C@H](CCCNC(=N)N)NC(=O)[C@@H]2CCCN2C(=O)[C@H](CC(C)C)NC1=O)[C@@H](C)CC` [SA-21] (Ac-RLIEDICLPRWGCLWEDD-NH2; disulfide 7-13), the Kd at HSA [2] (Discussion, reference not given, read-out: affinity of benchmark) was 600 nM. Also, the Kd on HSA [2] (read-out: binding affinity to HSA) was around 500 nM. Besides, in series [3] (setting [6]), the level at 2 min turned out to be 40000 ng/mL and the level at 1 h is 30000 ng/mL. Moreover, the “plasma concentration in 3 h study, in words” value in series [3] (mice, tail vein, 2, 60, 180 min) is “indistinguishable”.
As to OFS-SWCRC, the “reactivity with glutathione (GSH)” value in series [4] is “reacted with GSH over 3 hours”.
Consider FITC-EYEYKpalmESE-NH2, for which the Kd in series [5] was 39 nM.
